Results published in patent US20250154154A1 (Relay Binney Street, 2nd Floor, priority 2020, published 2025).

Experiments:
SRC = SRC (Homo sapiens, UniProt P12931); assay: SRC Biochemical Assay Protocol (microfluidic mobility shift assay, FLPeptide4 substrate)
How it was run: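 Recombinant SRC (0.26 nM) preincubated 30 min at RT with compound (0.0017–100 μM) and 1.5 μM FLPeptide4, then 50 μM ATP added; 90 min reaction in HEPES pH 7.4, 10 mM MgCl2, 1% DMSO, EDTA-quenched. Phosphopeptide quantified by microfluidic mobility shift; IC50 from 4-parameter logistic fit.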

[1] = system: phospho-S6RP (Ser 235/236) in RBE cells; assay: Cellular Proliferation Protocol (cellular phospho-S6RP HTRF), RBE cells; type: cell-based; settings: 6 hours treatment, RBE or SNU-1079 cells, cell line not given
How it was run: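 RBE cells, 2000/well, seeded 24 h before 6 h compound treatment at 37° C. Lysates were probed with a Eu-cryptate/d2 HTRF antibody sandwich for phospho-S6RP (Ser 235/236), incubated overnight at room temperature. Signal normalised to DMSO control and IC50 fitted to a 4-parameter curve.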

RBE cells = assay: Cell Viability Protocol (CellTiterGlo), RBE cells; type: cell-based; settings: RBE or SNU-1079 cells, 72 or 120 hour, cell line and time not given
How it was run: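 RBE cells plated at 1200/well in RPMI 1640 with 10% FBS, incubated 24 h, then dosed with compound from DMSO stocks and incubated 72 or 120 h at 37° C. CellTiterGlo luminescence normalised to DMSO control; IC50 from 4-parameter fit.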

Sequence of SRC (P12931 whole entry, species assumed): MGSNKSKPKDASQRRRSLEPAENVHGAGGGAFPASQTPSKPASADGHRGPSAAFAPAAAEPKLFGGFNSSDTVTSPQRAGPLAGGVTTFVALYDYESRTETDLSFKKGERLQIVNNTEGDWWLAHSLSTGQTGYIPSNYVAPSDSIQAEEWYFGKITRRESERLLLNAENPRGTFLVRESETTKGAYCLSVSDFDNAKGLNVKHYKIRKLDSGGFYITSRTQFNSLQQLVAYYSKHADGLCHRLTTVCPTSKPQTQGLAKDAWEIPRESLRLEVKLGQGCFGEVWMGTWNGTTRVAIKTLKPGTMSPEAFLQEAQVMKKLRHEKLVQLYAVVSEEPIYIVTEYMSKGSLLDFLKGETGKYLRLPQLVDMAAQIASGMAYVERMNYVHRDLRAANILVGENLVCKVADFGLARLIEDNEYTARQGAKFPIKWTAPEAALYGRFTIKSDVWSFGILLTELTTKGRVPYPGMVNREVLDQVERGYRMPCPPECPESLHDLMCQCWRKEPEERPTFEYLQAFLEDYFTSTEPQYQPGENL

Compound	IC50 (SRC) [nM]	IC50 [1] [nM]	IC50 (RBE cells) [nM]	IC50 ([1]; 6 h) [nM]
C=CC(=O)N1CCC(N2CC(C#Cc3c(-c4ccc(Cl)c(C)c4)c4c(N)ncnc4n3C(C)C)C2)CC1 [II-114]	≤ 10	10 to 1000	10 to 1000	–
CN(C)CC=CC(=O)N1CC2C(C#Cc3c(-c4cccc5c4OCO5)c4c(N)ncnc4n3C)C2C1 (stereo not drawn) [II-115]	≤ 10	10 to 1000	10 to 1000	–
CC(C)n1c(C#CC2C3CN(C(=O)C=CCN(C)C)CC23)c(-c2cccc3c2OCO3)c2c(N)ncnc21 (stereo not drawn) [II-116]	≤ 10	≤ 10	≤ 10	–
CCn1c(C#C[C@@H]2[C@H]3CN(C(=O)/C=C/CN(C)C)C[C@@H]23)c(-c2cccc3c2OCO3)c2c(N)ncnc21 [II-117]	≤ 10	≤ 10	≤ 10	–
C=CC(=O)N1CC[C@H](N2CC(C#Cc3c(-c4ccc(Cl)c(C(F)F)c4)c4c(N)ncnc4n3C(C)C)C2)[C@H](O)C1 [II-118]	≤ 10	10 to 1000	10 to 1000	–
C=CC(=O)N1CCC(N2CC(C#Cc3c(-c4cccc5c4OCO5)c4c(N)ncnc4n3CC)C2)CC1 [II-119]	≤ 10	10 to 1000	10 to 1000	–
C=CC(=O)N1CCC(N2CC(C#Cc3c(-c4ccc(F)c5c4OCO5)c4c(N)ncnc4n3C)C2)CC1 [II-120]	10 to 1000	10 to 1000	10 to 1000	–
C=CC(=O)N1CC2C(C#Cc3c(-c4cccc5c4OCO5)c4c(N)ncnc4n3C)C2C1 (stereo not drawn) [II-126]	≤ 10	10 to 1000	10 to 1000	–
C=CC(=O)N1CC2C(C#Cc3c(-c4ccc(Cl)c5c4OCO5)c4c(N)ncnc4n3C)C2C1 (stereo not drawn) [II-127]	≤ 10	10 to 1000	10 to 1000	–
C=CC(=O)N1CC2C(C#Cc3c(-c4ccc(Cl)c5c4OC(F)(F)O5)c4c(N)ncnc4n3C)C2C1 (stereo not drawn) [II-128]	1000 to 10000	1000 to 10000	10 to 1000	–
C=CC(=O)N1CC2C(C#Cc3c(-c4cccc5c4OC(F)(F)O5)c4c(N)ncnc4n3C)C2C1 (stereo not drawn) [II-129]	1000 to 10000	1000 to 10000	10 to 1000	–
C=CC(=O)N1C[C@@H]2[C@@H](C#Cc3c(-c4ccc(F)c5c4OCO5)c4c(N)ncnc4n3C)[C@@H]2C1 [II-130]	≤ 10	10 to 1000	10 to 1000	–
C=CC(=O)N1C[C@@H]2[C@@H](C#Cc3c(-c4ccc(F)c5c4OCO5)c4c(N)ncnc4n3C(C)C)[C@@H]2C1 [II-131]	≤ 10	≤ 10	≤ 10	–
C=CC(=O)N1C[C@@H]2[C@@H](C#Cc3c(-c4cccc5c4OCO5)c4c(N)ncnc4n3C(C)C)[C@@H]2C1 [II-132]	≤ 10	≤ 10	≤ 10	–
CCC(=O)N1C[C@@H]2[C@@H](C#Cc3c(-c4ccc(F)c5c4OCO5)c4c(N)ncnc4n3C(C)C)[C@@H]2C1 [II-133]	≤ 10	10 to 1000	10 to 1000	–
C=CC(=O)N1CCC(N2CC(C#Cc3c(-c4ccc(F)c5c4OCO5)c4c(N)ncnc4n3C(C)C)C2)CC1 [II-134]	≤ 10	10 to 1000	10 to 1000	–

Compound	IC50 (SRC) [nM]	IC50 [1] [nM]	IC50 (RBE cells) [nM]	IC50 ([1]; 6 h) [nM]
C=CC(=O)N1C[C@@H]2[C@@H](C#Cc3c(-c4ccc(Oc5cccc(C)n5)c5c4OCO5)c4c(N)ncnc4n3C)[C@@H]2C1 [II-135]	10 to 1000	10 to 1000	10 to 1000	–
C=CC(=O)N1CCC(C#Cc2c(-c3ccc(Br)c(OC)c3)c3c(N)ncnc3n2C(C)C)CC1 [II-160, 1-(4-((4-amino-5-(4-bromo-3-methoxyphenyl)-7-isopropyl-7H-pyrrolo[2,3-d]pyrimidin-6-yl)ethynyl)piperidin-1-yl)prop-2-en-1-one]	≤ 10	–	10 to 1000	10 to 1000
C=CC(=O)N1CCC(N2CC(C#Cc3c(-c4ccc(Br)c(OC)c4)c4c(N)ncnc4n3C(C)C)C2)CC1 [II-161, 1-(4-(3-((4-amino-5-(4-bromo-3-methoxyphenyl)-7-isopropyl-7H-pyrrolo[2,3-d]pyrimidin-6-yl)ethynyl)azetidin-1-yl)piperidin-1-yl)prop-2-en-1-one]	≤ 10	–	10 to 1000	10 to 1000
C=CC(=O)N(C)CC#Cc1c(-c2ccc(Oc3ccccc3)cc2)c2c(N)ncnc2n1C [II-163, N-(3-(4-amino-7-methyl-5-(4-phenoxyphenyl)-7H-pyrrolo[2,3-d]pyrimidin-6-yl)prop-2-yn-1-yl)-N-methylacrylamide]	≤ 10	–	10 to 1000	10 to 1000
C=CC(=O)N1CC[C@H](N2CC(C#Cc3c(-c4ccc(Oc5ccccc5)cc4)c4c(N)ncnc4n3C)C2)[C@H](O)C1 [II-164, 1-((3R,4S)-4-(3-((4-amino-7-methyl-5-(4-phenoxyphenyl)-7H-pyrrolo[2,3-d]pyrimidin-6-yl)ethynyl)azetidin-1-yl)-3-hydroxypiperidin-1-yl)prop-2-en-1-one]	10 to 1000	–	≤ 10	≤ 10
C=CC(=O)N1CC[C@@H](N2CC(C#Cc3c(-c4ccc(Oc5ccccc5)cc4)c4c(N)ncnc4n3C)C2)[C@@H](O)C1 [II-165, 1-((3S,4R)-4-(3-((4-amino-7-methyl-5-(4-phenoxyphenyl)-7H-pyrrolo[2,3-d]pyrimidin-6-yl)ethynyl)azetidin-1-yl)-3-hydroxypiperidin-1-yl)prop-2-en-1-one]	10 to 1000	–	≤ 10	≤ 10
C=CC(=O)N1CCN(C2CC(C#Cc3c(-c4ccc(Oc5ccccc5)cc4)c4c(N)ncnc4n3C)C2)C(=O)C1 (stereo not drawn) [II-166, 4-acryloyl-1-(3-((4-amino-7-methyl-5-(4-phenoxyphenyl)-7H-pyrrolo[2,3-d]pyrimidin-6-yl)ethynyl)cyclobutyl) piperazin-2-one]	≤ 10	–	≤ 10	≤ 10
C=CC(=O)N1CCN(C2CC(C#Cc3c(-c4ccc(Oc5ccccc5)cc4)c4c(N)ncnc4n3C)C2)CC1 (stereo not drawn) [II-167, 1-(4-(3-((4-amino-7-methyl-5-(4-phenoxyphenyl)-7H-pyrrolo[2,3-d]pyrimidin-6-yl)ethynyl)cyclobutyl)piperazin-1-yl)prop-2-en-1-one]	10 to 1000	–	≤ 10	10 to 1000
C=CC(=O)N1CCC(N2CC(C#Cc3c(-c4ccc(Oc5ccccc5)cc4)c4c(N)ncnc4n3[C@H](C)CO)C2)CC1 [II-168, (R)-1-(4-(3-((4-amino-7-(1-hydroxypropan-2-yl)-5-(4-phenoxyphenyl)-7H-pyrrolo[2,3-d]pyrimidin-6-yl)ethynyl)azetidin-1-yl)piperidin-1-yl)prop-2-en-1-one]	10 to 1000	–	≤ 10	≤ 10
C=CC(=O)N1CCC(N2CC(C#Cc3c(-c4ccc(Oc5ccccc5)cc4)c4c(N)ncnc4n3[C@@H](C)CO)C2)CC1 [II-169, (S)-1-(4-(3-((4-amino-7-(1-hydroxypropan-2-yl)-5-(4-phenoxyphenyl)-7H-pyrrolo[2,3-d]pyrimidin-6-yl)ethynyl)azetidin-1-yl)piperidin-1-yl)prop-2-en-1-one]	10 to 1000	–	≤ 10	≤ 10
C=CC(=O)N1CC[C@H](N2CC(C#Cc3c(-c4ccc(Oc5ccccc5)cc4)c4c(N)ncnc4n3C)C2)[C@H](F)C1 [II-170, 1-((3R,4S)-4-(3-((4-amino-7-methyl-5-(4-phenoxyphenyl)-7H-pyrrolo[2,3-d]pyrimidin-6-yl)ethynyl)azetidin-1-yl)-3-fluoropiperidin-1-yl)prop-2-en-1-one]	10 to 1000	–	≤ 10	≤ 10
C=CC(=O)N1CC[C@@H](N2CC(C#Cc3c(-c4ccc(Oc5ccccc5)cc4)c4c(N)ncnc4n3C)C2)[C@@H](F)C1 [II-171, 1-((3S,4R)-4-(3-((4-amino-7-methyl-5-(4-phenoxyphenyl)-7H-pyrrolo[2,3-d]pyrimidin-6-yl)ethynyl)azetidin-1-yl)-3-fluoropiperidin-1-yl)prop-2-en-1-one]	10 to 1000	–	≤ 10	≤ 10
Cn1c(C#CC2CN(C(=O)/C=C/CN3CC(F)C3)C2)c(-c2ccc(Oc3ccccc3)cc2)c2c(N)ncnc21 [II-172, (E)-1-(3-((4-amino-7-methyl-5-(4-phenoxyphenyl)-7H-pyrrolo [2,3-d]pyrimidin-6-yl)ethynyl)azetidin-1-yl)-4-(3-fluoroazetidin-1-yl)but-2-en-1-one]	10 to 1000	–	10 to 1000	10 to 1000
Cn1c(C#CC2CC3(C2)CN(C(=O)/C=C/CN2CCC2)C3)c(-c2ccc(Oc3ccccc3)cc2)c2c(N)ncnc21 [II-173, (E)-1-(6-((4-amino-7-methyl-5-(4-phenoxyphenyl)-7H-pyrrolo[2,3-d]pyrimidin-6-yl)ethynyl)-2-azaspiro[3.3]heptan-2-yl)-4-(azetidin-1-yl)but-2-en-1-one]	≤ 10	–	≤ 10	10 to 1000
Cn1c(C#CC2CC3(C2)CN(C(=O)/C=C/CN2CC(O)C2)C3)c(-c2ccc(Oc3ccccc3)cc2)c2c(N)ncnc21 [II-174, (E)-1-(6-((4-amino-7-methyl-5-(4-phenoxyphenyl)-7H-pyrrolo[2,3-d]pyrimidin-6-yl)ethynyl)-2-azaspiro[3.3]heptan-2-yl)-4-(3-hydroxyazetidin-1-yl)but-2-en-1-one]	≤ 10	–	10 to 1000	10 to 1000
